The values below come from US7875645B2, “Method for the treatment of CNS disorders with substituted 2-imidazoles or imidazole derivatives” (Hoffman-La Roche Inc., priority 2006, dated 2011).

Structures can show the parent of a compound that is named as a salt.

By Ki is commonly meant a dissociation constant, usually derived from enzyme kinetics or from competition with a known ligand. As a reminder, the Kd is a measure of binding affinity in units of concentration.

The target in this experiment is T1, TAAR1 (Mus musculus, UniProt Q923Y8).
T1 construct: expressed in transfected cells; host or cells: HEK293 (ATCC # CRL-1573), stably transfected with pIRESneo2 expression plasmid; membranes prepared
T1 sequence (Q923Y8 whole entry): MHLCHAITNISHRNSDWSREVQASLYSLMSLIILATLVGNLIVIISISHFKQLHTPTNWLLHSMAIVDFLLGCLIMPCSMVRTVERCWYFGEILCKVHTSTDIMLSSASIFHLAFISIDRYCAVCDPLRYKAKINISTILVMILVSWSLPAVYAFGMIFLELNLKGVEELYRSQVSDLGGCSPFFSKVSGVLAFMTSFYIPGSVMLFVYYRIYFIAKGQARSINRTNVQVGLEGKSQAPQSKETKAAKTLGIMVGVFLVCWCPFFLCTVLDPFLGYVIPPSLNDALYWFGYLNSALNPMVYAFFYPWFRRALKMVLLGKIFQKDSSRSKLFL
Put plainly: Radioligand binding assay on membranes of HEK293 cells stably expressing TAAR1. The note with it: for Ki: mouse TAAR1, radioligand [3H]-rac-2-(1,2,3,4-tetrahydro-1-naphthyl)-2-imidazoline at 60 nM, 4° C., 30 min. The method, then:
For the construction of expression plasmids the coding sequences of human, rat and mouse TAAR 1 were amplified from genomic DNA essentially as described by Lindemann et al.. The Expand High Fidelity PCR System (Roche Diagnostics) was used with 1.5 mM Mg^2+ and purified PCR products were cloned into pCR2.1-TOPO cloning vector (Invitrogen) following the instructions of the manufacturer. PCR products were subcloned into the pIRESneo2 vector (BD Clontech, Palo Alto, Calif.), and expression vectors were sequence verified before introduction in cell lines.
For the generation of stably transfected cell lines HEK293 cells were transfected with the pIRESneo2 expression plasmids containing the TAAR coding sequences (described above) with Lipofectamine 2000 (Invitrogen) according to the instructions of the manufacturer, and 24 hrs post transfection the culture medium was supplemented with 1 mg/ml G418 (Sigma, Buchs, Switzerland). After a culture period of about 10 d clones were isolated, expanded and tested for responsiveness to trace amines (all compounds purchased from Sigma) with the cAMP Biotrak Enzyme immunoassay (EIA) System (Amersham) following the non-acetylation EIA procedure provided by the manufacturer.
Cells at confluence were rinsed with ice-cold phosphate buffered saline without Ca^2+ and Mg^2+ containing 10 mM EDTA and pelleted by centrifugation at 1000 rpm for 5 min at 4° C. The pellet was then washed twice with ice-cold phosphate buffered saline and cell pellet was frozen immediately by immersion in liquid nitrogen and stored until use at −80° C. Cell pellet was then suspended in 20 ml HEPES-NaOH (20 mM), pH 7.4 containing 10 mM EDTA, and homogenized with a Polytron (PT 3000, Kinematica) at 10,000 rpm for 10 s. The homogenate was centrifuged at 48,000×g for 30 min at 4° C. and the pellet resuspended in 20 ml HEPES-NaOH (20 mM), pH 7.4 containing 0.1 mM EDTA (buffer A), and homogenized with a Polytron at 10,000 rpm for 10 s. The homogenate was then centrifuged at 48,000×g for 30 min at 4° C. and the pellet resuspended in 20 ml buffer A, and homogenized with a Polytron at 10,000 rpm for 10 s. Protein concentration was determined by the method of Pierce (Rockford, Ill.). The homogenate was then centrifuged at 48,000×g for 10 min at 4° C., resuspended in HEPES-NaOH (20 mM), pH 7.0 including MgCl2 (10 mM) and […] homogenized with a Polytron at 10,000 rpm for 10 s.
Binding assay was performed at 4° C. in a final volume of 1 ml, and with an incubation time of 30 min. […] Non-specific binding was defined as the amount of [^3H]-rac-2-(1,2,3,4-tetrahydro-1-naphthyl)-2-imidazoline bound in the presence of the appropriate unlabelled ligand (10 μM). Competing ligands were tested in a wide range of concentrations (10 pM-30 μM). […] Each experiment was performed in duplicate. Al incubations were terminated by rapid filtration through UniFilter-96 plates (Packard Instrument Company) and glass filter GF/C, pre-soaked for at least 2 h in polyethylenimine 0.3%, and using a Filtermate 96 Cell Harvester (Packard Instrument Company). The tubes and filters were then washed 3 times with 1 ml aliquots of cold buffer B. Filters were not dried and soaked in Ultima gold (45 μl/well, Packard Instrument Company) and bound radioactivity was counted by a TopCount Microplate Scintillation Counter (Packard Instrument Company).

Regarding `Clc1cccc(CC2=NCCN2)c1Cl` [Example 17, 2-(2,3-Dichloro-benzyl)-4,5-dihydro-1H-imidazole], the Ki came to 0.021 µM.

In turn, `Brc1ccccc1CC1=NCCN1` [Example 124, 2-(2-Bromo-benzyl)-4,5-dihydro-1H-imidazole] yielded a Ki of 0.044 µM. On the same count and under the same terms, the figure for `COc1cccc(Cl)c1CC1=NCCN1` [Example 55, 2-(2-Chloro-6-methoxy-benzyl)-4,5-dihydro-1H-imidazole] is 0.017 µM; for `COc1c(CC2=NCCN2)ccc2occc12` [Example 169, 2-(4-Methoxy-benzofuran-5-ylmethyl)-4,5-dihydro-1H-imidazole hydrochloride] it is 0.045 µM; for `CCOc1cc(CC)c(Cc2ncc[nH]2)c(CC)c1` [Example 215, 2-(4-Ethoxy-2,6-diethyl-benzyl)-1H-imidazole] it is 0.029 µM. As for `CCc1cccc(C(C)C)c1CC1=NCCN1` [Example 12, 2-(2-Ethyl-6-isopropyl-benzyl)-4,5-dihydro-1H-imidazole], the affinity, expressed as Ki, was 0.03 µM. As for `CCc1ccc(Oc2ccccc2)c(CC)c1Cc1ncc[nH]1` [Example 220, 2-(2,6-Diethyl-3-phenoxy-benzyl)-1H-imidazole], the Ki was determined as 0.013 µM. `CCc1cccc(CC)c1Cc1ncc[nH]1` [Example 70, 2-(2,6-Diethyl-benzyl)-1H-imidazole] yielded an inhibition constant Ki of 0.025 µM. Compared with the last molecule, the Ki is about 1.9-fold higher. Same read-out and setting: the figure for `Cc1cc(C(C)(C)C)c(O)c(C)c1CC1=NCCN1` [Example 117, 6-tert-Butyl-3-(4,5-dihydro-1H-imidazol-2-ylmethyl)-2,4-dimethyl-phenol, reference compound] is 0.008 µM; for `Cc1ccc2ccccc2c1CC1=NCCN1` [Example 154, 2-(2-Methyl-naphthalen-1-ylmethyl)-4,5-dihydro-1H-imidazole] it is 0.01 µM; for `Cc1ccc2ccoc2c1CC1=NCCN1` [Example 106, 2-(6-Methyl-benzofuran-7-ylmethyl)-4,5-dihydro-1H-imidazole] it is 0.017 µM. `Cc1sc(C)c(Cc2ncc[nH]2)c1C` [Example 110, 2-(2,4,5-Trimethyl-thiophen-3-ylmethyl)-1H-imidazole] returned a Ki of 0.021 µM. The molecule `FC(F)(F)c1cccc(CC2=NCCN2)c1Cl` [Example 59, 2-(2-Chloro-3-trifluoromethyl-benzyl)-4,5-dihydro-1H-imidazole] returned a Ki of 0.041 µM.

`CCc1ccc(OCc2ccccc2)c(CC)c1Cc1ncc[nH]1` [Example 218, 2-(3-Benzyloxy-2,6-diethyl-benzyl)-1H-imidazole] displayed a Ki of 0.047 µM. In the case of `COc1cc(Br)c(CC2=NCCN2)cc1OC` [Example 34, 2-(2-Bromo-4,5-dimethoxy-benzyl)-4,5-dihydro-1H-imidazole hydrochloride], the Ki is 0.031 µM. This Ki lies about 1.5-fold lower than the previous one. In the case of `CCc1ccccc1CC1=NCCN1` [Example 54, 2-(2-Ethyl-benzyl)-4,5-dihydro-1H-imidazole], the inhibition constant Ki was 0.016 µM.

`COc1ccc2ccccc2c1CC1=NCCN1` [Example 149, 2-(2-Methoxy-naphthalen-1-ylmethyl)-4,5-dihydro-1H-imidazole] registered an inhibition constant (Ki) of 0.012 µM. `Cc1c(C)c(C)c(Cc2ncc[nH]2)c(C)c1C` [Example 72, 2-Pentamethylphenylmethyl-1H-imidazole]: the Ki was 0.017 µM. Molecule `COc1cccc(CC2=NCCN2)c1OC` [Example 122, 2-(2,3-Dimethoxy-benzyl)-4,5-dihydro-1H-imidazole] yielded a Ki of 0.025 µM. In turn, `Brc1c(CC2=NCCN2)ccc2ccccc12` [Example 175, 2-(1-Bromo-naphthalen-2-ylmethyl)-4,5-dihydro-1H-imidazole] gave an inhibitory constant (Ki) of 0.011 µM. This Ki is about 2.3-fold lower than that of the molecule before. For the molecule “4-Tritio-2-naphthalen-1-ylmethyl-4,5-dihydro-1H-imidazole [Example 113]”, the Ki stood at 0.007 µM. The same measure, in the same setting: the value for `c1ccc2c(CC3=NCCN3)csc2c1` [Example 143, 2-Benzo[b]thiophen-3-ylmethyl-4,5-dihydro-1H-imidazole] was 0.004 µM; that for `c1ccc2c(CC3=NCCN3)cccc2c1` [Example 140, 2-Naphthalen-1-ylmethyl-4,5-dihydro-1H-imidazole, reference compound] was 0.007 µM.

Take `Cc1c(C)c(C)c(CC2=NCCN2)c(C)c1C` [Example 115, 2-Pentamethylphenylmethyl-4,5-dihydro-1H-imidazole]: the Ki is 0.007 µM. `Clc1cccc(I)c1CC1=NCCN1` [Example 187, 2-(2-Chloro-6-iodo-benzyl)-4,5-dihydro-1H-imidazole]: the Ki was 0.016 µM. This Ki is about 2.3-fold higher than that of the molecule before.

Consider `Cc1cc(C)c(CC2=NCCN2)c(C)c1` [Example 118, 2-(2,4,6-Trimethyl-benzyl)-4,5-dihydro-1H-imidazole, reference compound], for which the Ki amounted to 0.017 µM. The Ki values of the last two molecules are within 1.5-fold of each other.

The molecule `Nc1c(Cl)cc(CC2=NCCN2)cc1Cl` [Example 125, 2,6-Dichloro-4-(4,5-dihydro-1H-imidazol-2-ylmethyl)-phenylamine, reference compound] displayed an inhibition constant Ki of 0.048 µM. The same measure, in the same setting: the figure for `Oc1ccc2ccccc2c1CC1=NCCN1` [Example 172, 1-(4,5-Dihydro-1H-imidazol-2-ylmethyl)-naphthalen-2-ol hydrochloride] is 0.05 µM. Take `c1ccc2cc(CC3=NCCN3)ccc2c1` [Example 141, 2-Naphthalen-2-ylmethyl-4,5-dihydro-1H-imidazole]: the affinity corresponds to a Ki of 0.029 µM.

`Cc1cccc(Br)c1CC1=NCCN1` [Example 57, 2-(2-Bromo-6-methyl-benzyl)-4,5-dihydro-1H-imidazole] displayed a Ki of 0.029 µM. Turning to `CCc1ccc(Cl)c(CC)c1CC1=NCCN1` [Example 196, 2-(3-Chloro-2,6-diethyl-benzyl)-4,5-dihydro-1H-imidazole], the affinity corresponds to a Ki of 0.023 µM. For the molecule `c1ccc(C2CC2)c(CC2=NCCN2)c1` [Example 56, 2-(2-Cyclopropyl-benzyl)-4,5-dihydro-1H-imidazole], the affinity corresponds to a Ki of 0.025 µM.

`Cc1cccc(C(C)C2=NCCN2)c1C` (racemic) [Example 18, rac-2-[1-(2,3-Dimethyl-phenyl)-ethyl]-4,5-dihydro-1H-imidazole hydrochloride]: the Ki stood at 0.027 µM. The same measure, in the same setting: the figure for `c1cc2ccc(CC3=NCCN3)cc2o1` [Example 170, 2-Benzofuran-6-ylmethyl-4,5-dihydro-1H-imidazole hydrochloride] is 0.026 µM. With `c1ccc2c(c1)CCCC2C1=NCCN1` (racemic) [[^3H]-rac-2-(1,2,3,4-tetrahydro-1-naphthyl)-2-imidazoline, reference compound], where the note is “radioligand used in the TAAR1 binding assay, species not given, read-out: calculated Kd value of the radioligand”, the equilibrium dissociation constant (Kd) is 60 nM. As for `CCc1cc(Oc2ccccc2)cc(CC)c1Cc1ncc[nH]1` [Example 219, 2-(2,6-Diethyl-4-phenoxy-benzyl)-1H-imidazole], the affinity corresponds to a Ki of 0.012 µM. Same read-out and setting: the figure for `COc1cccc(C)c1CC1=NCCN1` [Example 10, 2-(2-Methoxy-6-methyl-benzyl)-4,5-dihydro-1H-imidazole] is 0.023 µM; for `Cc1cc(C)c(C)c(Cc2ncc[nH]2)c1C` [Example 71, 2-(2,3,5,6-Tetramethyl-benzyl)-1H-imidazole] it is 0.01 µM. `CCc1cccc(OC)c1CC1=NCCN1` [Example 9, 2-(2-Ethyl-6-methoxy-benzyl)-4,5-dihydro-1H-imidazole]: the Ki was 0.01 µM. On to `COc1cc(Br)c(C)c(CC2=NCCN2)c1` [Example 58, 2-(3-Bromo-5-methoxy-2-methyl-benzyl)-4,5-dihydro-1H-imidazole], for which the affinity, expressed as Ki, was 0.03 µM.
